Measurements: ChEMBL document CHEMBL1667814 (Bioorg Med Chem, 2011)
pIC50: −log10 of the molar value.

Experiments:
Cholinesterase = Cholinesterase (Equus caballus, UniProt P81908)
Description: Inhibition of equine serum BChE by Ellman's method

Acetylcholinesterase = Acetylcholinesterase (Electrophorus electricus, UniProt O42275); settings: for pIC50: read-out: IC50
Sequence of Acetylcholinesterase (O42275 whole entry): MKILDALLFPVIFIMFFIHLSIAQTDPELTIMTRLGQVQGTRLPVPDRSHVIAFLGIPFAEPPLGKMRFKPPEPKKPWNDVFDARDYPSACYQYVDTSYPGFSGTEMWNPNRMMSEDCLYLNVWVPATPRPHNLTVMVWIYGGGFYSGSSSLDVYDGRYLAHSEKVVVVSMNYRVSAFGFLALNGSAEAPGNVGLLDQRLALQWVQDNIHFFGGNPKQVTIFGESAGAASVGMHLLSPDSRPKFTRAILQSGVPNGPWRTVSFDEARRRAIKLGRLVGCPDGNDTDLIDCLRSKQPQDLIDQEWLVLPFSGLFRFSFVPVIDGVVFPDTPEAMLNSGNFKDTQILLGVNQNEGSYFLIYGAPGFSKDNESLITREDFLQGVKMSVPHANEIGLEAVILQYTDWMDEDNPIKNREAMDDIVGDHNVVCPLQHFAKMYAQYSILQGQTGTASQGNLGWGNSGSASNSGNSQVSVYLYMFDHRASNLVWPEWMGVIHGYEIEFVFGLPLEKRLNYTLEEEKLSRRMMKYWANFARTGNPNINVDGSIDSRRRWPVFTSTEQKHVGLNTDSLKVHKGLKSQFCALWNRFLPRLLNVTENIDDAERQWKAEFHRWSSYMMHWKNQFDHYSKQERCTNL
Description: Inhibition of electric eel AChE by Ellman's method

Sequence of Cholinesterase (P81908 whole entry): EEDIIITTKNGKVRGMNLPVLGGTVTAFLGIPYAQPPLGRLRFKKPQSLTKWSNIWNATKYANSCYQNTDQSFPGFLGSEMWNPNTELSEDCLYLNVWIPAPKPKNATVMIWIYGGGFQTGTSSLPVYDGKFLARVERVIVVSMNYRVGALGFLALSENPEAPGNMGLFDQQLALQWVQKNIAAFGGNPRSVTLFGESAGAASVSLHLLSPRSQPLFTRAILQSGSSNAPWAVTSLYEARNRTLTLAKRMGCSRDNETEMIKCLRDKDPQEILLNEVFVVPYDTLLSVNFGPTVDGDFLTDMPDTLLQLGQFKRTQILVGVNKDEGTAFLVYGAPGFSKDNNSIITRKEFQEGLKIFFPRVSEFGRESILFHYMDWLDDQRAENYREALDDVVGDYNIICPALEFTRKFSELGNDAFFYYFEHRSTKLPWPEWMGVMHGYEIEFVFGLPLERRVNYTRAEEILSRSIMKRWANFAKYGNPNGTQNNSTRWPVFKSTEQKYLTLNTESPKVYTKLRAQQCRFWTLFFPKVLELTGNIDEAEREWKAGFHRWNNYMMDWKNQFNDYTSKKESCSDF

Structure (SMILES) | pIC50 (Cholinesterase) | pIC50 (Acetylcholinesterase) | IC50 (Acetylcholinesterase; read-out: pIC50 (converted))
c1ccc(C/N=c2/c3ccccc3nc3n2CCCCCC3)cc1 | 5.96 | < 3.30 | –
c1ccc(C/N=c2/c3ccccc3nc3n2CCC3)cc1 | 5.72 | 4.86 | –
c1ccc2/c(=N\CCCCCCC/N=c3\c4ccccc4nc4n3CCC4)n3c(nc2c1)CCC3 | 7.06 | 7.10 | –
CN(CCCN=c1c2ccccc2nc2n1CCC2)CCC/N=c1\c2ccccc2nc2n1CCC2 | 6.26 | 6.27 | –
CC(=O)N(CCCN=c1c2ccccc2nc2n1CCC2)CCC/N=c1\c2ccccc2nc2n1CCC2 | 6.57 | 6.48 | –
c1ccc2c(=NCCCCCCC/N=c3\c4ccccc4nc4n3CCCCCC4)n3c(nc2c1)CCCCCC3 | 7.57 | 7.19 | –
CN(CCCN=c1c2ccccc2nc2n1CCCCCC2)CCC/N=c1\c2ccccc2nc2n1CCCCCC2 | 6.71 | 6.69 | –
CC(=O)N(CCCN=c1c2ccccc2nc2n1CCCCCC2)CCC/N=c1\c2ccccc2nc2n1CCCCCC2 | 7.14 | 7.31 | –
c1ccc2c(=NCCCCCCCCN=c3c4ccccc4nc4n3CCC4)n3c(nc2c1)CCC3 | 8.32 | 7.24 | –
CN(CCCCN=c1c2ccccc2nc2n1CCC2)CCCN=c1c2ccccc2nc2n1CCC2 | 7.09 | 6.25 | –
CC(=O)N(CCCCN=c1c2ccccc2nc2n1CCC2)CCCN=c1c2ccccc2nc2n1CCC2 | 8.40 | 7.68 | –
CCC(=O)N(CCCCN=c1c2ccccc2nc2n1CCC2)CCCN=c1c2ccccc2nc2n1CCC2 | 8.23 | 7.74 | –
C=C(C)C(=O)N(CCCCN=c1c2ccccc2nc2n1CCC2)CCCN=c1c2ccccc2nc2n1CCC2 | 7.97 | 8.17 | –
c1ccc2c(=NCCCCCCCCN=c3c4ccccc4nc4n3CCCCCC4)n3c(nc2c1)CCCCCC3 | 7.12 | 4.84 | –
CN(CCCCN=c1c2ccccc2nc2n1CCCCCC2)CCCN=c1c2ccccc2nc2n1CCCCCC2 | 7.29 | 6.22 | –
CC(=O)N(CCCCN=c1c2ccccc2nc2n1CCCCCC2)CCCN=c1c2ccccc2nc2n1CCCCCC2 | 7.37 | 6.75 | –
CCC(=O)N(CCCCN=c1c2ccccc2nc2n1CCCCCC2)CCCN=c1c2ccccc2nc2n1CCCCCC2 | 7.33 | 6.54 | –
C=C(C)C(=O)N(CCCCN=c1c2ccccc2nc2n1CCCCCC2)CCCN=c1c2ccccc2nc2n1CCCCCC2 | 7.42 | 6.81 | –
CC(=O)NCC(=O)N(CCCCN=c1c2ccccc2nc2n1CCCCCC2)CCCN=c1c2ccccc2nc2n1CCCCCC2 | 6.91 | 7.12 | –
CC(C)(C)C(=O)N(CCCCN=c1c2ccccc2nc2n1CCCCCC2)CCCN=c1c2ccccc2nc2n1CCCCCC2 | 7.59 | 6.27 | 53.6 nM
CCCCC(=O)N(CCCCN=c1c2ccccc2nc2n1CCCCCC2)CCCN=c1c2ccccc2nc2n1CCCCCC2 | 7.89 | 5.98 | –
CC(C)CC(=O)N(CCCCN=c1c2ccccc2nc2n1CCCCCC2)CCCN=c1c2ccccc2nc2n1CCCCCC2 | 8.09 | 6.21 | –
CC(C)CCC(=O)N(CCCCN=c1c2ccccc2nc2n1CCCCCC2)CCCN=c1c2ccccc2nc2n1CCCCCC2 | 8.52 | 6.10 | –
